Reference: patent US6984493B1, “Method for examining the involvement of opioid peptides in prurtis” (Toray Industries, Inc., priority 2000, dated 2006)

Tested on: severe itching
Procedure: One capsule of a κ-opioid agonist 17-cyclopropylmethyl-3, 14β-dihydroxy-4,5α-epoxy-6β-(N-methyl-trans-3-(3-furyl)acrylamide) morphinan hydrochloride capsule (10 μg/body) was administered to each of the selected patients. […] To quantitatively determine the severity of itching, visual analogue scale (VAS) was employed, in which the severity of itching was determined on a straight line of 0 to 100 mm where no itching was rated as “0” and the supposable most severe itching was rated as “100”.

CN(C(=O)/C=C/c1ccoc1)[C@@H]1CC[C@@]2(O)[C@H]3Cc4ccc(O)c5c4[C@@]2(CCN3CC2CC2)[C@H]1O5.Cl (relative stereo) [17-cyclopropylmethyl-3, 14β-dihydroxy-4,5α-epoxy-6β-(N-methyl-trans-3-(3-furyl)acrylamide) morphinan hydrochloride]
visual analogue scale (VAS) of severity of itching, mean of the four subjects (after 4 to 24 hours from the administration, one capsule 10 μg/body, four patients with severe itching, VAS 75 mm before administration, scale 0 to 100 mm): 0 mm
relief of itching (after two hours from the administration, all administered patients (four), one capsule 10 μg/body): itching was relieved
antipruritic effect on administration (summary statement referring to Example 2) (as shown in Example 2): apparent antipruritic effect
duration of antipruritic effect (continued until) (time from the administration, all administered patients (four), one capsule 10 μg/body): 24 h
